Source: ChEMBL document CHEMBL2429854, “Influences of hydrocarbon linkers on the receptor binding affinities of gonadotropin-releasing hormone peptides” (Bioorg Med Chem Lett, 2013)

How the values were obtained:
[1] = biological target: T1, Gonadotropin-releasing hormone receptor (Homo sapiens) (UniProt P30968); test: Displacement of [111In]-DOTA-Aun-(D-Lys6-GnRH) from human GnRH receptor after 3 hrs by gamma-counting; conditions: concentration not given here
T1 sequence (whole entry): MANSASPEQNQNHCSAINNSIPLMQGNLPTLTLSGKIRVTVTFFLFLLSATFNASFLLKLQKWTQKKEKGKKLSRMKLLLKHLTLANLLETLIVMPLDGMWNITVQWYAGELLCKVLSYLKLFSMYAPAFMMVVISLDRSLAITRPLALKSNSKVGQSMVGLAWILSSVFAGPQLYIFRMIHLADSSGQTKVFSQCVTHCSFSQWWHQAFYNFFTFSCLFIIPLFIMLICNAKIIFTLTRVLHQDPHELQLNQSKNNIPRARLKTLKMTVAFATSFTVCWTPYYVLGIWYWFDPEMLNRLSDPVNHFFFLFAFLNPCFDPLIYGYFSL

[2] = biological target: T2, Gonadotropin-releasing hormone receptor (Homo sapiens, UniProt P30968); test: Displacement of [125I]-[DTrp6]-LH-RH from human GnRH receptor after 3 hrs by gamma counting
T2 sequence (P30968 whole entry): T1 sequence (whole entry)

Row | inhibition [1] [%] | IC50 [2] [µM] | SMILES
1 | 85 | – | CC(C)C[C@H](NC(=O)[C@@H](CCCCNC(=O)CCCCCCCCCCNC(=O)CN1CCN(CC(=O)O)CCN(CC(=O)O)CCN(CC(=O)O)CC1)NC(=O)[C@H](Cc1ccc(O)cc1)NC(=O)[C@H](CO)NC(=O)[C@H](Cc1c[nH]c2ccccc12)NC(=O)[C@H](Cc1cnc[nH]1)NC(=O)[C@@H]1CCC(=O)N1)C(=O)N[C@@H](CCCNC(=N)N)C(=O)N1CCC[C@H]1C(=O)NCC(N)=O
2 | – | 0.135 | CC(C)C[C@H](NC(=O)[C@@H](CCCCNC(=O)CCCNC(=O)CN1CCN(CC(=O)O)CCN(CC(=O)O)CCN(CC(=O)O)CC1)NC(=O)[C@H](Cc1ccc(O)cc1)NC(=O)[C@H](CO)NC(=O)[C@H](Cc1c[nH]c2ccccc12)NC(=O)[C@H](Cc1cnc[nH]1)NC(=O)[C@@H]1CCC(=O)N1)C(=O)N[C@@H](CCCN=C(N)N)C(=O)N1CCC[C@H]1C(=O)NCC(N)=O
